# In publication doi:10.1101/2024.04.15.589505v1 (biorxiv, 2024):
# Assays:
# [1] = target: T1, DENV2 protease (DENV2pro; DENV serotype 2 NS2B-NS3 protease construct, GGGGSGGGG-linked) (Dengue virus 2 Thailand/16681/84, UniProt P29990); assay: biochemical
# [2] = target: T1, DENV2 protease (DENV2pro; DENV serotype 2 NS2B-NS3 protease construct, GGGGSGGGG-linked); assay: biochemical; type: binding
# T1 sequence (P29990 1394-1440 limits assumed): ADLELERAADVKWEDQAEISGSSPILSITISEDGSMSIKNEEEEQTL
# T1 sequence (P29990 1476-1660 limits assumed): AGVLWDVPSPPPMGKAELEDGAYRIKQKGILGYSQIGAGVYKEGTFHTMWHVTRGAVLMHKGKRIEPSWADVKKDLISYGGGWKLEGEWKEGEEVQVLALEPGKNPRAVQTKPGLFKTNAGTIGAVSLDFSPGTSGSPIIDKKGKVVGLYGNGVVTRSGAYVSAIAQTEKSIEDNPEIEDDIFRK
Structure (SMILES),IC50 [1],Kd [2]
CCCCCC(=O)N[C@H](C(=O)NCc1ccc(NC(=N)N)cc1)c1ccc(OCc2ccccc2)cc1 [compound 3],17.6 ± 2.15 µM,–
N=C(N)NCCC[C@H](NC(=O)[C@H](CCCNC(=N)N)NC(=O)c1ccccc1)B(O)O [compound 1],0.68 ± 0.01 µM,–
NC(=O)c1cccc(NC(=O)[C@@H](NC(=O)c2ccc(Oc3ccccc3)cc2)c2ccc(OCc3ccccc3)cc2)c1 [compound 4],5.37 ± 0.73 µM,–
CC(C)(C)NC(=O)C(=O)/C=C/c1c[nH]c2ccccc12 [compound 5],37.1 ± 1.29 µM,–
NC(=O)c1ccc(CNC(=O)[C@@H](NC(=O)c2ccc(-c3cccs3)s2)c2ccc(OCc3ccccc3)cc2)cc1 [compound 23],–,2.4 ± 0.6 µM
